Source: patent publication US8741889B2, “Method of treating non-small cell lung cancer and colon cancer with gamma-secretase inhibitor” (Hoffmann-La Roche Inc, priority 2008, dated 2014)

Experiments:
A549 cells = experiment: FACS cell cycle analysis in A549 cells; format: cell-based, human
Procedure: The A549 cell line was obtained from the American Tissue Culture Collection (ATCC), Manassas, Va. and maintained in Ham's media supplemented with 10% heat-inactivated Fetal Bovine Serum (HI-FBS; GIBCO/BRL, Gaithersburg, Md.) and 2 mM L-glutamine (GIBCO/BRL). 1×10^6 A549 cells were seeded in […] plates for FACS analysis and 3×10^5 cells per well were seeded in 6-well plate for Western blot analysis. Cells were allowed to attach for 24 hours and then treated with compound (1) compound at the following concentrations: 0.1, 0.25, 0.5, 1, 2.5 and 5 μM. Cells were incubated for either 72 or 120 hours and collected for FACS analysis.
Cells were incubated with compound (1) for 72 or 120 hours, harvested by scraping, washed twice in phosphate-buffered saline (PBS), spun down at 1.5×10^3 rpm, and fixed at −20° C. overnight with 70% ethanol. Cells were then analyzed using MPM2-FITC and propidium iodide (PI) double staining (Becton Dickinson, San Jose, Calif.). Briefly, cells were washed twice with cold PBS containing 0.05% Tween-20 (PBST), incubated for 2 hours with anti-Phospho Ser/Thr MPM2 antibody (#05-368, Upstate/Millipore, Bullerica, Mass.), washed with PBST again, incubated in the dark with secondary IgG-FITC antibody (#AP308F, Chemicon, Temecula, Calif.), washed with PBST and incubated with PI/RNase solution (Becton Dickinson, San Jose, Calif.) for additional 30 min at 37° C.
Samples were analyzed on a FACScan flow cytometer (Becton Dickinson, San Jose, Calif.) equipped with a 488 nm argon ion laser. Green fluorescein isothiocyanate (FITC) fluorescence was collected with a 530/30 nm bandpass filter using logarithmic amplification and orange emission from propidium iodide (PI) was filtered through a 585/42 nm bandpass filter using linear amplification. A minimum of 20,000 events was collected on each sample. Cell cycle analysis of DNA histograms was performed with FlowJo software (Tree Star Inc., Ashland, Oreg.).

[1] = tested on: truncated human Notch 1 processing; experiment: Cellular Notch luciferase reporter assay in HEK293 cells; format: cell-based
Procedure: Multiple in vitro assays were utilized to characterize the potency and selectivity of compound (1). The primary in vitro assay uses cell-free membrane preparations to provide the -secretase enzyme complex as an in vitro assay. […] The cellular processing of APP is measured using an ELISA-based readout. HEK293 cells have been engineered to over-express APP. Processing is measured by an ELISA-based quantitation of the A 1-40 secretase product. Cellular Notch inhibitory activity is measured using HEK293 cell line stably expressing a truncated human Notch 1 fused in its intracellular domain to a VP16/[…] transcriptional activator, which drives a firefly luciferase gene Inhibition of Notch processing produces a reduction in luciferase reporter activity as measured by its chemo luminescence.

CC(C)(C(=O)NCC(F)(F)C(F)(F)F)C(=O)N[C@@H]1C(=O)Nc2ccccc2-c2ccccc21 [Compound (1), 2,2-Dimethyl-N—((S)-6-oxo-6,7-dihydro-5H-dibenzo[b,d]azepin-7-yl)-N′-(2,2,3,3,3-pentafluoro-propyl)-malonamide]
G1, % (A549 cells; 0.10 μM, 72 hrs): 63.1%
G2/M, % (A549 cells; 0.10 μM, 72 hrs): 23.3%
subG1, % (A549 cells; 0.10 μM, 72 hrs): 6.5%
G1, % (A549 cells; 0.10 μM, 120 hrs): 59.0%
G2/M, % (A549 cells; 0.10 μM, 120 hrs): 24.1%
subG1, % (A549 cells; 0.10 μM, 120 hrs): 6.8%
G1, % (A549 cells; 0.25 μM, 72 hrs): 64.8%
G2/M, % (A549 cells; 0.25 μM, 72 hrs): 20.3%
subG1, % (A549 cells; 0.25 μM, 72 hrs): 5.9%
G1, % (A549 cells; 0.25 μM, 120 hrs): 61.1%
G2/M, % (A549 cells; 0.25 μM, 120 hrs): 23.8%
subG1, % (A549 cells; 0.25 μM, 120 hrs): 6.7%
G1, % (A549 cells; 0.50 μM, 72 hrs): 66.6%
G2/M, % (A549 cells; 0.50 μM, 72 hrs): 19.4%
subG1, % (A549 cells; 0.50 μM, 72 hrs): 4.3%
G1, % (A549 cells; 0.50 μM, 120 hrs): 58.6%
G2/M, % (A549 cells; 0.50 μM, 120 hrs): 23.3%
subG1, % (A549 cells; 0.50 μM, 120 hrs): 9.6%
G1, % (A549 cells; 1.0 μM, 72 hrs): 64%
G2/M, % (A549 cells; 1.0 μM, 72 hrs): 21.5%
subG1, % (A549 cells; 1.0 μM, 72 hrs): 6.6%
G1, % (A549 cells; 1.0 μM, 120 hrs): 60.9%
G2/M, % (A549 cells; 1.0 μM, 120 hrs): 19.8%
subG1, % (A549 cells; 1.0 μM, 120 hrs): 8.0%
G1, % (A549 cells; 5.0 μM, 72 hrs): 64.9%
G2/M, % (A549 cells; 5.0 μM, 72 hrs): 20%
subG1, % (A549 cells; 5.0 μM, 72 hrs): 8.4%
G1, % (A549 cells; 5.0 μM, 120 hrs): 58.7%
G2/M, % (A549 cells; 5.0 μM, 120 hrs): 18.3%
subG1, % (A549 cells; 5.0 μM, 120 hrs): 13.7%
IC50 [1]: 5 nM
